Results reported in PubChem BioAssay (NCI).
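Exposure lasted 48 hours, with cells grown in 96-well plates and compounds tested at five concentrations. TGI is the concentration that stops growth completely.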

Columns and labels:
Assay in all cases: DTP human tumour cell line panel, 48 h
SR leukemia = tested on: SR leukemia
NCI-H522 lung = tested on: NCI-H522 lung
TK-10 renal = tested on: TK-10 renal
786-0 renal = tested on: 786-0 renal
SNB-75 CNS = tested on: SNB-75 CNS
MDA-MB-435 = tested on: MDA-MB-435
UACC-62 melanoma = tested on: UACC-62 melanoma
SN12C renal = tested on: SN12C renal
HL-60(TB) leukemia = tested on: HL-60(TB) leukemia
HT29 colon = tested on: HT29 colon
HOP-62 NSCLC = tested on: HOP-62 NSCLC
SK-MEL-2 melanoma = tested on: SK-MEL-2 melanoma
A498 renal = tested on: A498 renal
IGROV1 ovarian = tested on: IGROV1 ovarian
DU-145 prostate = tested on: DU-145 prostate
NCI-H460 lung = tested on: NCI-H460 lung
SF-268 CNS = tested on: SF-268 CNS
K-562 leukemia = tested on: K-562 leukemia
M14 melanoma = tested on: M14 melanoma
OVCAR-8 ovarian = tested on: OVCAR-8 ovarian
UO-31 renal = tested on: UO-31 renal
HCC-2998 colon = tested on: HCC-2998 colon
SF-539 CNS = tested on: SF-539 CNS
KM12 colon = tested on: KM12 colon
SNB-19 CNS = tested on: SNB-19 CNS
OVCAR-3 ovarian = tested on: OVCAR-3 ovarian
UACC-257 melanoma = tested on: UACC-257 melanoma
HCT-15 colon = tested on: HCT-15 colon
U251 CNS = tested on: U251 CNS
BT-549 breast = tested on: BT-549 breast
MOLT-4 leukemia = tested on: MOLT-4 leukemia
NCI/ADR-RES ovarian = tested on: NCI/ADR-RES ovarian
MDA-MB-231 breast = tested on: MDA-MB-231 breast
HS 578T breast = tested on: HS 578T breast
NCI-H226 lung = tested on: NCI-H226 lung
HCT-116 colon = tested on: HCT-116 colon
MCF7 breast = tested on: MCF7 breast
SF-295 CNS = tested on: SF-295 CNS
SK-OV-3 ovarian = tested on: SK-OV-3 ovarian
LOX IMVI melanoma = tested on: LOX IMVI melanoma
ACHN renal = tested on: ACHN renal
MALME-3M melanoma = tested on: MALME-3M melanoma
EKVX NSCLC = tested on: EKVX NSCLC
MDA-N = tested on: MDA-N
RPMI-8226 leukemia = tested on: RPMI-8226 leukemia
OVCAR-5 ovarian = tested on: OVCAR-5 ovarian
SW-620 colon = tested on: SW-620 colon
OVCAR-4 ovarian = tested on: OVCAR-4 ovarian
A549 NSCLC = tested on: A549 NSCLC
PC-3 prostate = tested on: PC-3 prostate
SK-MEL-28 melanoma = tested on: SK-MEL-28 melanoma
CAKI-1 renal = tested on: CAKI-1 renal
RXF 393 renal = tested on: RXF 393 renal
CCRF-CEM leukemia = tested on: CCRF-CEM leukemia
HOP-92 NSCLC = tested on: HOP-92 NSCLC
NCI-H23 lung = tested on: NCI-H23 lung
SK-MEL-5 melanoma = tested on: SK-MEL-5 melanoma
COLO 205 colon = tested on: COLO 205 colon

## Oc1ccc(Cc2cc(Cc3ccc(O)cc3)cc(Cc3ccc(O)cc3)c2)cc1
SR leukemia
  TGI: > 50 µM
NCI-H522 lung
  TGI: > 50 µM
TK-10 renal
  TGI: > 50 µM
786-0 renal
  TGI: > 50 µM
SNB-75 CNS
  TGI: > 50 µM
MDA-MB-435
  TGI: > 50 µM
UACC-62 melanoma
  TGI: > 50 µM
SN12C renal
  TGI: > 50 µM
HL-60(TB) leukemia
  TGI: > 50 µM
HT29 colon
  TGI: > 50 µM
HOP-62 NSCLC
  TGI: > 50 µM
SK-MEL-2 melanoma
  TGI: > 50 µM
A498 renal
  TGI: > 50 µM
IGROV1 ovarian
  TGI: > 50 µM
DU-145 prostate
  TGI: > 50 µM
NCI-H460 lung
  TGI: > 50 µM
SF-268 CNS
  TGI: > 50 µM
K-562 leukemia
  TGI: > 50 µM
M14 melanoma
  TGI: > 50 µM
OVCAR-8 ovarian
  TGI: > 50 µM
UO-31 renal
  TGI: > 50 µM
HCC-2998 colon
  TGI: > 50 µM
SF-539 CNS
  TGI: > 50 µM
KM12 colon
  TGI: > 50 µM
SNB-19 CNS
  TGI: > 50 µM
OVCAR-3 ovarian
  TGI: > 50 µM
UACC-257 melanoma
  TGI: > 50 µM
HCT-15 colon
  TGI: > 50 µM
U251 CNS
  TGI: > 50 µM
BT-549 breast
  TGI: > 50 µM
MOLT-4 leukemia
  TGI: > 50 µM
NCI/ADR-RES ovarian
  TGI: > 50 µM
MDA-MB-231 breast
  TGI: > 50 µM
HS 578T breast
  TGI: > 50 µM
NCI-H226 lung
  TGI: > 50 µM
HCT-116 colon
  TGI: > 50 µM
MCF7 breast
  TGI: > 50 µM
SF-295 CNS
  TGI: > 50 µM
SK-OV-3 ovarian
  TGI: > 50 µM
LOX IMVI melanoma
  TGI: > 50 µM
ACHN renal
  TGI: > 50 µM
MALME-3M melanoma
  TGI: > 50 µM
EKVX NSCLC
  TGI: > 50 µM
MDA-N
  TGI: > 50 µM
RPMI-8226 leukemia
  TGI: > 50 µM
OVCAR-5 ovarian
  TGI: > 50 µM
SW-620 colon
  TGI: > 50 µM
OVCAR-4 ovarian
  TGI: > 50 µM
A549 NSCLC
  TGI: > 50 µM
PC-3 prostate
  TGI: > 50 µM
SK-MEL-28 melanoma
  TGI: > 50 µM

## COP(=O)(OC)C1=c2c(C)noc2=C2C=COC2C1=O (stereo not given)
SR leukemia
  TGI: > 100 µM
NCI-H522 lung
  TGI: > 100 µM
TK-10 renal
  TGI: > 100 µM
786-0 renal
  TGI: > 100 µM
SNB-75 CNS
  TGI: > 100 µM
MDA-MB-435
  TGI: > 100 µM
CAKI-1 renal
  TGI: > 100 µM
UACC-62 melanoma
  TGI: > 100 µM
SN12C renal
  TGI: > 100 µM
HL-60(TB) leukemia
  TGI: > 100 µM
HT29 colon
  TGI: > 100 µM
RXF 393 renal
  TGI: > 100 µM
HOP-62 NSCLC
  TGI: > 100 µM
SK-MEL-2 melanoma
  TGI: > 100 µM
A498 renal
  TGI: > 100 µM
IGROV1 ovarian
  TGI: > 100 µM
DU-145 prostate
  TGI: > 100 µM
SF-268 CNS
  TGI: > 100 µM
K-562 leukemia
  TGI: > 100 µM
M14 melanoma
  TGI: > 100 µM
OVCAR-8 ovarian
  TGI: > 100 µM
CCRF-CEM leukemia
  TGI: > 100 µM
HOP-92 NSCLC
  TGI: > 100 µM
NCI-H23 lung
  TGI: > 100 µM
UO-31 renal
  TGI: > 100 µM
HCC-2998 colon
  TGI: > 100 µM
SF-539 CNS
  TGI: > 100 µM
KM12 colon
  TGI: > 100 µM
SNB-19 CNS
  TGI: > 100 µM
OVCAR-3 ovarian
  TGI: > 100 µM
UACC-257 melanoma
  TGI: > 100 µM
HCT-15 colon
  TGI: > 100 µM
U251 CNS
  TGI: > 100 µM
BT-549 breast
  TGI: > 100 µM
MOLT-4 leukemia
  TGI: > 100 µM
SK-MEL-5 melanoma
  TGI: > 100 µM
NCI/ADR-RES ovarian
  TGI: > 100 µM
MDA-MB-231 breast
  TGI: > 100 µM
HS 578T breast
  TGI: > 100 µM
NCI-H226 lung
  TGI: > 100 µM
HCT-116 colon
  TGI: > 100 µM
MCF7 breast
  TGI: > 100 µM
SF-295 CNS
  TGI: > 100 µM
SK-OV-3 ovarian
  TGI: > 100 µM
LOX IMVI melanoma
  TGI: > 100 µM
ACHN renal
  TGI: > 100 µM
MALME-3M melanoma
  TGI: > 100 µM
EKVX NSCLC
  TGI: > 100 µM
MDA-N
  TGI: > 100 µM
RPMI-8226 leukemia
  TGI: > 100 µM
OVCAR-5 ovarian
  TGI: > 100 µM
SW-620 colon
  TGI: > 100 µM
OVCAR-4 ovarian
  TGI: > 100 µM
A549 NSCLC
  TGI: > 100 µM
PC-3 prostate
  TGI: > 100 µM
COLO 205 colon
  TGI: > 100 µM

## CC1(C)O[C@H]2OC(CO[Si](C)(C)C(C)(C)C)C(N=[N+]=[N-])[C@H]2O1 (stereo not given in full)
SR leukemia
  TGI: 32.2 µM
TK-10 renal
  TGI: 36.7 µM
786-0 renal
  TGI: 32.7 µM
SNB-75 CNS
  TGI: 59.3 µM
MDA-MB-435
  TGI: 66.4 µM
CAKI-1 renal
  TGI: 42.5 µM
UACC-62 melanoma
  TGI: 52.6 µM
SN12C renal
  TGI: 36.2 µM
HL-60(TB) leukemia
  TGI: 23.1 µM
HT29 colon
  TGI: 25.5 µM
RXF 393 renal
  TGI: 32.6 µM
HOP-62 NSCLC
  TGI: 34.1 µM
SK-MEL-2 melanoma
  TGI: 32 µM
A498 renal
  TGI: 53 µM
IGROV1 ovarian
  TGI: 21.8 µM
NCI-H460 lung
  TGI: 43.7 µM
SF-268 CNS
  TGI: 41.3 µM
K-562 leukemia
  TGI: 29.1 µM
M14 melanoma
  TGI: 43.9 µM
OVCAR-8 ovarian
  TGI: 38.1 µM
CCRF-CEM leukemia
  TGI: 38.3 µM
HOP-92 NSCLC
  TGI: 75.9 µM
NCI-H23 lung
  TGI: 39 µM
UO-31 renal
  TGI: 32.3 µM
HCC-2998 colon
  TGI: 32.2 µM
SF-539 CNS
  TGI: 36 µM
KM12 colon
  TGI: 34.2 µM
SNB-19 CNS
  TGI: 36.1 µM
OVCAR-3 ovarian
  TGI: 38.1 µM
UACC-257 melanoma
  TGI: 35.5 µM
HCT-15 colon
  TGI: 38.3 µM
U251 CNS
  TGI: 48.1 µM
BT-549 breast
  TGI: 36.7 µM
MOLT-4 leukemia
  TGI: 33.9 µM
NCI/ADR-RES ovarian
  TGI: 37.7 µM
HS 578T breast
  TGI: 51.5 µM
NCI-H226 lung
  TGI: 38.7 µM
HCT-116 colon
  TGI: 28.9 µM
MCF7 breast
  TGI: 36.8 µM
SF-295 CNS
  TGI: 24.9 µM
SK-OV-3 ovarian
  TGI: 28.3 µM
LOX IMVI melanoma
  TGI: 35.9 µM
ACHN renal
  TGI: 38.6 µM
MALME-3M melanoma
  TGI: 31.7 µM
EKVX NSCLC
  TGI: 39.3 µM
MDA-N
  TGI: 53.8 µM
RPMI-8226 leukemia
  TGI: 28.8 µM
OVCAR-5 ovarian
  TGI: 35.2 µM
SW-620 colon
  TGI: 52.4 µM
OVCAR-4 ovarian
  TGI: 71.7 µM
A549 NSCLC
  TGI: 35.8 µM
PC-3 prostate
  TGI: 37 µM
SK-MEL-28 melanoma
  TGI: 60.9 µM
